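Each compound was tested at five concentrations against cells in 96-well plates for 48 hours. GI50 is the concentration that inhibits growth by half.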 Activity calls are given as the source filed them. Rule as the data show it: active = GI50 up to about 1.1 µM and inactive = higher.
Tests used:
Assay in all cases: NCI anticancer screen, dose series, 48 h
LOX IMVI = tested on: LOX IMVI
SK-MEL-5 = tested on: SK-MEL-5
SK-OV-3 = tested on: SK-OV-3
EKVX = tested on: EKVX
HCT-116 = tested on: HCT-116
COLO 205 = tested on: COLO 205
A549 = tested on: A549
SW-620 = tested on: SW-620
A498 = tested on: A498
SK-MEL-2 = tested on: SK-MEL-2
RPMI-8226 = tested on: RPMI-8226
SF-268 = tested on: SF-268
U-251 = tested on: U-251
OVCAR-4 = tested on: OVCAR-4
KM12 = tested on: KM12
CAKI-1 = tested on: CAKI-1
OVCAR-3 = tested on: OVCAR-3
Malme-3M = tested on: Malme-3M

Measured: GI50

Cc1cccc(NC(=O)C(=O)C(C(=O)c2ccccc2F)C2OC(=O)c3ccccc32)c1Cl (stereo unspecified)
inactive: LOX IMVI 17.7 µM | SK-MEL-5 64 µM | SK-OV-3 37.2 µM | EKVX 37.9 µM | HCT-116 20.3 µM | COLO 205 20 µM | A549 36.4 µM | SW-620 42.5 µM | A498 60.7 µM | SK-MEL-2 16.8 µM | RPMI-8226 26.9 µM | SF-268 21.4 µM | U-251 14.5 µM | OVCAR-4 43.9 µM | KM12 25 µM | CAKI-1 61.4 µM

CC(=O)Nc1ccc(C(=O)N2N=C(C)/C(=C/c3cccc(O)c3)C2=O)cc1
inactive: LOX IMVI > 100 µM | SK-MEL-5 > 100 µM | EKVX > 100 µM | HCT-116 > 100 µM | COLO 205 > 100 µM | A549 > 100 µM | SW-620 > 100 µM | SK-MEL-2 > 100 µM | SF-268 > 100 µM | U-251 > 100 µM | OVCAR-4 > 100 µM | OVCAR-3 > 100 µM | Malme-3M > 100 µM | CAKI-1 > 100 µM

O=c1n(Cc2ccccc2)c2ccccc2n1CC1CS1 (stereo unspecified)
inactive: LOX IMVI > 100 µM | SK-OV-3 > 100 µM | EKVX > 100 µM | HCT-116 > 100 µM | COLO 205 > 100 µM | A549 > 100 µM | SW-620 > 100 µM | SK-MEL-2 > 100 µM | RPMI-8226 > 100 µM | SF-268 > 100 µM | OVCAR-4 > 100 µM | OVCAR-3 > 100 µM | KM12 > 100 µM | Malme-3M > 100 µM | CAKI-1 > 100 µM

O=C1c2ccccc2-c2cccc3ccc(Cc4ccc5ccccc5c4)c1c23
inactive: SK-MEL-5 > 100 µM | EKVX > 100 µM | HCT-116 > 100 µM | COLO 205 > 100 µM | A549 > 100 µM | SW-620 > 100 µM | SK-MEL-2 > 100 µM | RPMI-8226 > 100 µM | SF-268 > 100 µM | U-251 98.2 µM | OVCAR-4 > 100 µM | OVCAR-3 > 100 µM | KM12 > 100 µM | Malme-3M > 100 µM

CC(=O)OCc1nnn2c1C(OC(C)=O)CC2 (stereo unspecified)
inactive: SK-MEL-5 > 100 µM | SK-OV-3 > 100 µM | EKVX > 100 µM | HCT-116 > 100 µM | COLO 205 > 100 µM | A549 > 100 µM | SW-620 > 100 µM | SK-MEL-2 > 100 µM | RPMI-8226 > 100 µM | U-251 > 100 µM | OVCAR-4 > 100 µM | OVCAR-3 > 100 µM | KM12 > 100 µM | Malme-3M > 100 µM | CAKI-1 > 100 µM

CC(C)(C1=NC(C(C)(C)C)CO1)C1=N[C@@H](C(C)(C)C)CO1 (stereo partly specified)
inactive: LOX IMVI > 100 µM | SK-MEL-5 > 100 µM | SK-OV-3 > 100 µM | EKVX > 100 µM | HCT-116 > 100 µM | COLO 205 > 100 µM | A549 > 100 µM | SW-620 > 100 µM | SK-MEL-2 > 100 µM | RPMI-8226 > 100 µM | SF-268 > 100 µM | U-251 > 100 µM | OVCAR-4 > 100 µM | OVCAR-3 > 100 µM | KM12 > 100 µM | Malme-3M > 100 µM

O=C1NCCCC12CCCNC2=O
inactive: LOX IMVI > 100 µM | SK-MEL-5 > 100 µM | SK-OV-3 > 100 µM | EKVX > 100 µM | HCT-116 > 100 µM | COLO 205 > 100 µM | A549 > 100 µM | SW-620 > 100 µM | RPMI-8226 > 100 µM | SF-268 > 100 µM | U-251 > 100 µM | OVCAR-3 > 100 µM | KM12 > 100 µM | Malme-3M > 100 µM

CC1CCN(c2cc(-c3cc4ccccc4o3)oc(=O)c2C#N)CC1
inactive: LOX IMVI > 100 µM | SK-MEL-5 > 100 µM | EKVX > 100 µM | HCT-116 > 100 µM | COLO 205 > 100 µM | A549 > 100 µM | SW-620 > 100 µM | A498 > 100 µM | SK-MEL-2 > 100 µM | RPMI-8226 > 100 µM | SF-268 > 100 µM | U-251 > 100 µM | OVCAR-4 18.8 µM | KM12 > 100 µM | Malme-3M > 100 µM | CAKI-1 19.9 µM

C/C(=N\NC(=S)Nc1ccc(C(=O)O)cc1)c1ccccn1
inactive: LOX IMVI 16.7 µM | SK-MEL-5 16.9 µM | EKVX 27.9 µM | HCT-116 23.5 µM | COLO 205 18.4 µM | A549 39.1 µM | SW-620 19.2 µM | A498 25 µM | SK-MEL-2 17.6 µM | RPMI-8226 29.8 µM | SF-268 49.9 µM | U-251 24.2 µM | OVCAR-4 15.1 µM | OVCAR-3 13.7 µM | KM12 25.5 µM | Malme-3M 15.5 µM | CAKI-1 29.5 µM

CN1C=C(C(N)=O)Cc2ccsc21
inactive: SK-MEL-5 > 100 µM | SK-OV-3 > 100 µM | EKVX > 100 µM | HCT-116 > 100 µM | COLO 205 > 100 µM | A549 > 100 µM | SW-620 > 100 µM | SK-MEL-2 > 100 µM | RPMI-8226 > 100 µM | SF-268 > 100 µM | U-251 > 100 µM | OVCAR-4 > 100 µM | OVCAR-3 > 100 µM | KM12 > 100 µM | Malme-3M > 100 µM | CAKI-1 > 100 µM

N/N=c1\c2ccccc2c2ccc3c4ccccc4/c(=N\N)c3c12
inactive: SK-MEL-5 > 100 µM | SK-OV-3 > 100 µM | EKVX > 100 µM | HCT-116 > 100 µM | COLO 205 > 100 µM | A549 > 100 µM | SW-620 > 100 µM | SK-MEL-2 > 100 µM | RPMI-8226 > 100 µM | SF-268 > 100 µM | U-251 > 100 µM | OVCAR-4 > 100 µM | KM12 > 100 µM | Malme-3M > 100 µM

COc1ccc(C2C(Cl)C(=O)N2NC(=O)c2ccc(NC(C)=O)cc2)cc1OC (stereo unspecified)
inactive: SK-MEL-5 > 100 µM | SK-OV-3 > 100 µM | HCT-116 > 100 µM | COLO 205 > 100 µM | A549 > 100 µM | SW-620 > 100 µM | SK-MEL-2 > 100 µM | RPMI-8226 > 100 µM | SF-268 > 100 µM | U-251 > 100 µM | OVCAR-3 > 100 µM | KM12 > 100 µM | Malme-3M > 100 µM

O/N=C/c1ncccc1C1OCCO1
inactive: LOX IMVI > 100 µM | SK-MEL-5 > 100 µM | SK-OV-3 > 100 µM | EKVX > 100 µM | HCT-116 > 100 µM | COLO 205 > 100 µM | A549 > 100 µM | SW-620 > 100 µM | SK-MEL-2 > 100 µM | SF-268 > 100 µM | U-251 > 100 µM | OVCAR-4 > 100 µM | OVCAR-3 > 100 µM | KM12 > 100 µM | Malme-3M > 100 µM | CAKI-1 > 100 µM

Source: ChEMBL document CHEMBL1201862, “PubChem BioAssay data set” (2004)
